Reference: patent US10610487B2, “Salts of active ingredients with polymeric counterions” (BASF SE, priority 2015, dated 2020)
Converted amounts (≈) assume the structure as drawn. Read-outs that look alike come from different tables or passages of the source.

Experiments:
physchem = settings: thermodynamic from solid
[1] = CD water, 100 mg haloperidol per 250 ml, hard gelatine capsule

CN(C)C(=O)C(CCN1CCC(O)(c2ccc(Cl)cc2)CC1)(c1ccccc1)c1ccccc1 [Loperamide, loperamide]
solubility thermodynamic at 72 h (physchem; water): 72.3 µg/mL (≈ 152 µM)

O=C(CCCN1CCC(O)(c2ccc(Cl)cc2)CC1)c1ccc(F)cc1 [Haloperidol, haloperidol]
Release of haloperidol ([1]; 0 min): 0.0% | Release of haloperidol ([1]; 2 min): 0.1% | Release of haloperidol ([1]; 4 min): 0.2% | Release of haloperidol ([1]; 6 min): 0.3% | Release of haloperidol ([1]; 8 min): 0.4% | Release of haloperidol ([1]; 10 min): 0.6% | Release of haloperidol ([1]; 30 min): 1.5% | Release of haloperidol ([1]; 60 min): 1.8% | Release of haloperidol ([1]; 120 min): 2.3% | solubility thermodynamic at 72 h (physchem; simulated gastric fluid): 600 µg/mL (≈ 1600 µM) | solubility thermodynamic at 72 h (physchem; water): 2.6 µg/mL (≈ 6.92 µM)
